Read-outs that look alike come from different tables or passages of the source.
How the values were obtained:
[1] = system: adult patients with uncontrolled gout; conditions: human, in vivo
[2] = system: adult patients with uncontrolled gout; assay: Tender and swollen joint counts, open-label study; assay type: in vivo, human
Protocol: Tender and Swollen Joint Counts: Tender and swollen (excludes hip) joint counts were recorded at the Week −4 or week −6 (prior to the first dose of MTX) Visit during the MTX Run-in Period for the open-label and randomized studies, respectively; prior to pegloticase infusion at the Day 1 and Weeks 14, 24 and 36 Visits, or at the Day 1 and weeks 6, 14, 20, 24, 30, 36, and 44 visits during the Pegloticase+IMM Period for the open-label and randomized studies, respectively; and at the End of Pegloticase Infusions Visit (if applicable) and the Week 52/End of Study/Early Termination Visit and the Post Treatment 3 and 6 month Follow-up visits. Tender and swollen joint counts were assessed by physical examination.

[3] = Early Termination Visit, Pegloticase Baseline, mITT Population
[4] = End of Pegloticase Infusions Visit, Pegloticase Baseline, mITT Population
[5] = Week 14, Pegloticase Baseline, mITT Population
[6] = Week 24, Pegloticase Baseline, mITT Population
[7] = Week 36, Pegloticase Baseline, mITT Population
[8] = Week 52/ET, Pegloticase Baseline, mITT Population
[9] = mITT, Early Termination Visit, n=3
[10] = mITT, End of Pegloticase Infusions Visit, n=2

## CN(Cc1cnc2nc(N)nc(N)c2n1)c1ccc(C(=O)N[C@@H](CCC(=O)O)C(=O)O)cc1 [MTX, methotrexate]
[1]
  Number of gout flares among subjects with at least one gout flare, Mean (SD): 1.2
  Number of gout flares among subjects with at least one gout flare, Median: 1.0
[1]; 1 day
  Any Gout Flares Since the Last Visit, %: (57.1) %
  Maximum Reported Intensity of Flare (0-10 scale), Mean: 5.8
  Maximum Reported Intensity of Flare (0-10 scale), Median: 5.5
  Maximum Reported Intensity of Flare (0-10 scale), Min, Max: 4, 8
  Pain at rest > 3 out of 10, %: (57.1) %
  Pain different than normal, %: (50.0) %
  Swelling in Joints, %: (42.9) %
[1]; -4 week
  Maximum Reported Intensity of Flare (0-10 scale), Median: 8.0
  Maximum Reported Intensity of Flare (0-10 scale), Min, Max: 7, 10

## pegloticase
[2]; [3]
  Swollen Joint Count, Change from Baseline, Mean (SD): −3.3 (3.06)
  Swollen Joint Count, Change from Baseline, Median: −4.0
  Swollen Joint Count, Observed, Mean (SD): 0.7 (0.58)
  Swollen Joint Count, Observed, Median: 1.0
  Tender Joint Count, Change from Baseline, Mean (SD): −2.7 (4.16)
  Tender Joint Count, Change from Baseline, Median: −4.0
  Tender Joint Count, Observed, Mean (SD): 7.7 (8.96)
  Tender Joint Count, Observed, Median: 3.0
[2]; [4]
  Swollen Joint Count, Change from Baseline, Mean (SD): −2.0 (2.83)
  Swollen Joint Count, Change from Baseline, Median: −2.0
  Swollen Joint Count, Observed, Mean (SD): 0.0 (0.00)
  Swollen Joint Count, Observed, Median: 0.0
  Tender Joint Count, Change from Baseline, Mean (SD): −3.0 (5.66)
  Tender Joint Count, Change from Baseline, Median: −3.0
  Tender Joint Count, Observed, Mean (SD): 2.0 (2.83)
  Tender Joint Count, Observed, Median: 2.0
[2]; [5]
  Swollen Joint Count, Change from Baseline, Mean (SD): −3.6 (7.04)
  Swollen Joint Count, Change from Baseline, Median: −2.5
  Swollen Joint Count, Observed, Mean (SD): 1.7 (3.73)
  Swollen Joint Count, Observed, Median: 0.0
  Tender Joint Count, Change from Baseline, Mean (SD): −5.1 (8.12)
  Tender Joint Count, Change from Baseline, Median: −5.0
  Tender Joint Count, Observed, Mean (SD): 4.6 (6.16)
  Tender Joint Count, Observed, Median: 2.0
[2]; [6]
  Swollen Joint Count, Change from Baseline, Mean (SD): −5.1 (6.66)
  Swollen Joint Count, Change from Baseline, Median: −3.0
  Swollen Joint Count, Observed, Mean (SD): 0.5 (1.21)
  Swollen Joint Count, Observed, Median: 0.0
  Tender Joint Count, Change from Baseline, Mean (SD): −6.8 (8.16)
  Tender Joint Count, Change from Baseline, Median: −4.0
  Tender Joint Count, Observed, Mean (SD): 2.6 (3.88)
  Tender Joint Count, Observed, Median: 0.0
[2]; [7]
  Swollen Joint Count, Change from Baseline, Mean (SD): −6.2 (8.15)
  Swollen Joint Count, Change from Baseline, Median: −4.0
  Swollen Joint Count, Observed, Mean (SD): 0.1 (0.33)
  Swollen Joint Count, Observed, Median: 0.0
  Tender Joint Count, Change from Baseline, Mean (SD): −7.8 (8.94)
  Tender Joint Count, Change from Baseline, Median: −4.0
  Tender Joint Count, Observed, Mean (SD): 2.1 (4.54)
  Tender Joint Count, Observed, Median: 0.0
[2]; [8]
  Swollen Joint Count, Change from Baseline, Mean (SD): −13.0 (13.00)
  Swollen Joint Count, Change from Baseline, Median: −13.0
  Swollen Joint Count, Observed, Mean (SD): 0.0 (0.00)
  Swollen Joint Count, Observed, Median: 0.0
  Tender Joint Count, Change from Baseline, Mean (SD): −16.0 (17.52)
  Tender Joint Count, Change from Baseline, Median: −15.0
  Tender Joint Count, Observed, Mean (SD): 5.3 (3.21)
  Tender Joint Count, Observed, Median: 4.0
[2]; mITT, Day 1, n=14
  Swollen Joint Count, Change from Methotrexate Baseline, Mean (SD): −0.7 (5.21)
  Swollen Joint Count, Change from Methotrexate Baseline, Median: 0.5
  Swollen Joint Count, Observed, Mean (SD): 5.3 (6.94)
  Swollen Joint Count, Observed, Median: 3.5
  Tender Joint Count, Change from Methotrexate Baseline, Mean (SD): −1.9 (9.75)
  Tender Joint Count, Change from Methotrexate Baseline, Median: 0.0
  Tender Joint Count, Observed, Mean (SD): 9.6 (11.03)
  Tender Joint Count, Observed, Median: 7.0
[2]; [9]
  Swollen Joint Count, Change from Methotrexate Baseline, Mean (SD): −1.0 (1.73)
  Swollen Joint Count, Change from Methotrexate Baseline, Median: 0.0
  Swollen Joint Count, Observed, Mean (SD): 0.7 (0.58)
  Swollen Joint Count, Observed, Median: 1.0
  Tender Joint Count, Change from Methotrexate Baseline, Mean (SD): 0.7 (5.13)
  Tender Joint Count, Change from Methotrexate Baseline, Median: 2.0
  Tender Joint Count, Observed, Mean (SD): 7.7 (8.96)
  Tender Joint Count, Observed, Median: 3.0
[2]; [10]
  Swollen Joint Count, Change from Methotrexate Baseline, Mean (SD): −7.0 (4.24)
  Swollen Joint Count, Change from Methotrexate Baseline, Median: −7.0
  Swollen Joint Count, Observed, Mean (SD): 0.0 (0.00)
  Swollen Joint Count, Observed, Median: 0.0
  Tender Joint Count, Change from Methotrexate Baseline, Mean (SD): −12.0 (7.07)
  Tender Joint Count, Change from Methotrexate Baseline, Median: −12.0
  Tender Joint Count, Observed, Mean (SD): 2.0 (2.83)
  Tender Joint Count, Observed, Median: 2.0
[2]; mITT, Week 14, n=14
  Swollen Joint Count, Change from Methotrexate Baseline, Mean (SD): −4.3 (7.38)
  Swollen Joint Count, Change from Methotrexate Baseline, Median: −2.0
  Swollen Joint Count, Observed, Mean (SD): 1.7 (3.73)
  Swollen Joint Count, Observed, Median: 0.0
  Tender Joint Count, Change from Methotrexate Baseline, Mean (SD): −7.0 (14.20)
  Tender Joint Count, Change from Methotrexate Baseline, Median: 0.0
  Tender Joint Count, Observed, Mean (SD): 4.6 (6.16)
  Tender Joint Count, Observed, Median: 2.0
[2]; mITT, Week 24, n=11
  Swollen Joint Count, Change from Methotrexate Baseline, Mean (SD): −6.6 (9.03)
  Swollen Joint Count, Change from Methotrexate Baseline, Median: −3.0
  Swollen Joint Count, Observed, Mean (SD): 0.5 (1.21)
  Swollen Joint Count, Observed, Median: 0.0
  Tender Joint Count, Change from Methotrexate Baseline, Mean (SD): −10.2 (14.27)
  Tender Joint Count, Change from Methotrexate Baseline, Median: −4.0
  Tender Joint Count, Observed, Mean (SD): 2.6 (3.88)
  Tender Joint Count, Observed, Median: 0.0
[2]; mITT, Week 36, n=9
  Swollen Joint Count, Change from Methotrexate Baseline, Mean (SD): −7.8 (10.81)
  Swollen Joint Count, Change from Methotrexate Baseline, Median: −3.0
  Swollen Joint Count, Observed, Mean (SD): 0.1 (0.33)
  Swollen Joint Count, Observed, Median: 0.0
  Tender Joint Count, Change from Methotrexate Baseline, Mean (SD): −12.3 (14.56)
  Tender Joint Count, Change from Methotrexate Baseline, Median: −7.0
  Tender Joint Count, Observed, Mean (SD): 2.1 (4.54)
  Tender Joint Count, Observed, Median: 0.0
[2]; mITT, Week 52/ET, n=3
  Swollen Joint Count, Change from Methotrexate Baseline, Mean (SD): −21.0 (9.64)
  Swollen Joint Count, Change from Methotrexate Baseline, Median: −25.0
  Swollen Joint Count, Observed, Mean (SD): 0.0 (0.00)
  Swollen Joint Count, Observed, Median: 0.0
  Tender Joint Count, Change from Methotrexate Baseline, Mean (SD): −24.0 (21.38)
  Tender Joint Count, Change from Methotrexate Baseline, Median: −17.0
  Tender Joint Count, Observed, Mean (SD): 5.3 (3.21)
  Tender Joint Count, Observed, Median: 4.0

From patent US20220409620A1, “REDUCING IMMUNOGENICITY TO PEGLOTICASE” (Horizon Pharma Rheumatology LLC, priority 2016, published 2022)
